Key:
COVID-19 coronavirus = assay type: in vivo, human; settings: group of elderly cruise travelers
coronavirus COVID-19 = assay type: in vivo; settings: after 4 days of osteltamivir alone, started at time of contact

| Compound | contraction of COVID-19 coronavirus (COVID-19 coronavirus) | test for the virus upon arrival home after the cruise (COVID-19 coronavirus) | blood result for COVID-19 virus (coronavirus COVID-19) |
| --- | --- | --- | --- |
| CCN(CC)CCCC(C)Nc1ccnc2cc(Cl)ccc12 (stereo not drawn) [chloroquine] | None contract COVID-19 coronavirus | negative |  |
| CCOC(=O)C1=C[C@@H](OC(CC)CC)[C@H](NC(C)=O)[C@@H](N)C1 [osteltamivir, oseltamivir] |  |  | positive |
